The source of these data is patent EP0070133B1, “Secondary phenylethanol amines, processes for their preparation and their pharmaceutical application” (priority 1981, dated 1983).

The test system of assay [1] is Female CFLP mice. As to the kind of experiment: Anti-hyperglycaemic activity: subcutaneous glucose load in fasted mice, area under blood glucose curve. It is filed as in vivo. The note with it: glucose 1 g/kg sc, 2 hour period, vs water control. Here is the method:
Female CFLP mice, each weighing approximately 25 g, were fasted for 24 hours prior to the study. The compounds under study were administered orally as an aqueous solution to each of 6 mice. 6 mice were given water as a control. 30 minutes later a blood sample (20 µl) was obtained from the tail for the analysis of blood glucose. Immediately after taking this blood sample, glucose (1 g/kg body weight) was administered subcutaneously to each mouse. Blood samples were then obtained from each mouse at 30 minute intervals for 120 minutes.
Compounds that produced a significant (P<0.05) reduction of blood glucose, compared with control mice given water, at any time interval, were considered active. The area under the blood glucose curve over the 2 hour period after the administration of the glucose was calculated for each compound and compared with the value for control animals.

For assay [2], the system named is Female CFLP mice. The assay is described as follows: Effect on energy expenditure and food intake of mice. It is filed as in vivo. The note with it: Mus musculus, po, 21 h.
Experimental: Female CFLP mice each weighing approximately 24 g, were given food and water ad lib before and during the experiment. The compounds were dissolved in water by addition of one mole of hydrochloric acid per mole of compound and these solutions were administered orally to each of 12 mice. A further 12 mice were dosed orally with water. The mice were placed in boxes through which air was drawn and the oxygen content of the air leaving the boxes was measured. […] The food intake of the mice was measured over this same period of 21 hours. The results are expressed as a percentage of the mean food intake or rate of energy expenditure of the mice dosed with water.
The test system of assay [3] is Rat hearts. As to the kind of experiment: Cardiac activity: rat hearts perfused by the Langendorff procedure. The note with it: for Emax: reference standard, maximum response, no dose given. The method, then: Rat hearts were perfused by the Langendorff procedure as follows:- • Hearts were dissected free within 30 seconds of death and reverse perfused via the aorta and coronary vessels with Krebs-Ringer bicarbonate solution (pH 7.4, 37°C) gassed with 95% oxygen:5% carbon dioxide at a flow rate between 8-12 cm^3/minute. Responses were observed after injection of drug dissolved in isotonic saline into the perfusion media.
Results are expressed as a percentage of the maximum response due to salbutamol.

The test system of assay [4] is genetically obese mice. As to the kind of experiment: Anti-obesity activity: carcass composition after 28 days of daily dosing. It is filed as in vivo. The method, then:
The compounds were administered by oral gavage in water or carboxymethyl-cellulose suspension to genetically obese mice daily for 28 days. At the end of the time the carcass composition was determined. The results obtained were as follows:-

Assay [5] relates to platelet aggregation in human whole blood. As to the kind of experiment: Collagen-induced platelet aggregation in human whole blood in vitro. The note with it: Final Concentration in Whole Blood 100 μM; collagen EC50 in presence of compound divided by control EC50. Type of assay: cell-based. Here is the method: Collagen-induced platelet aggregation in human whole blood in vitro.
Collagen added to stirred citrated blood causes platelet aggregation. As the platelets aggregate, the concentration of single platelets falls. […] Inhibitors of aggregation, such as aspirin and dipyridamole, reduce the response to collagen.
Collagen (Hormon-Chemie, Munich) or 154 mM NaCl (control) was added to each aliquot of blood stirred at 1100 rpm in an aggregometer at 37° after 3 mins pre-incubation with compound or appropriate solvent. Aggregates were fixed by addition of 0.5 vol 4.5% formaldehyde or 0.05 vol phosphate-buffered glutaraldehyde. Single platelets were counted electronically. Responses, expressed as per cent fall in platelet count, were obtained to a range of collagen concentrations. The concentration producing 50% maximal effect (EC50) was estimated from log10 concentration-response curves. Dose-ratios were calculated by dividing the EC50 obtained in the presence of compound under test by the control EC50.

The mark [6] stands for this setting: read-out: Mean Energy Expenditure (%).
[7] abbreviates: 10 μg added to perfusate, perfused rat heart, read-out: Heart Rate.
The mark [8] stands for this setting: 10 μg added to perfusate, perfused rat heart, read-out: Heart Tension.
[9] abbreviates: 30 μg added to perfusate, perfused rat heart, read-out: Heart Rate.
Where [10] appears, read: 30 μg added to perfusate, perfused rat heart, read-out: Heart Tension.
Setting [11] is: Rattus norvegicus, read-out: Heart Rate.
Setting [12] is: Rattus norvegicus, read-out: Heart Tension.

Structures can show the parent of a compound that is named as a salt. Where two headings read alike, the source gives them in different places.

Consider `CNCCOc1ccc(CC(C)NCC(O)c2ccccc2)cc1` (stereo not shown) [Example 10, N-[2-(4-(2-Methylaminoethoxy)phenyl-1-methylethyl]-2-hydroxy-2-phenylethanaminedihydrobromide], for which, in assay [1] (1 μ moles/kg po), the “Reduction in area under Blood glucose curve (%)” value (“Reduction in area … (%)” below) stood at 30%. In addition, the response vs control in vivo at 27.3 mg/kg came out at 118% in assay [2] (setting [6]) and 89% in assay [2] (read-out: Mean Food Intake (%)). Also, the results for the Emax at 0.01 mg in assay [3] (setting [7]) and in assay [3] (setting [8]) were 14% and 33%, respectively.
As for `CCOC(=O)NCCOc1ccc(CC(C)NCC(O)c2cccc(C(F)(F)F)c2)cc1` (stereo not shown) [Example 20, N-[2-(4-(2-Ethoxycarbonylaminoethoxy)phenyl)-1-methylethyl]-2-hydroxy-2-(3-trifluoromethylphenyl)-ethanamine], the “Reduction in area … (%)” value in assay [1] (2.5 μ moles/kg po) stood at 36%. The response vs control in vivo at 25.3 mg/kg turned out to be 115% in assay [2] (setting [6]) and 86% in assay [2] (read-out: Mean Food Intake (%)). The Emax at 0.03 mg in assay [3] (setting [9]) is 12%; in assay [3] (setting [10]) it was 0%.
Regarding `CNCCOc1ccc(CC(C)NCC(O)c2cccc(Cl)c2F)cc1.Cl.Cl` (stereo not shown) [Example 11, N-[2-(4-(2-Methylaminoethoxy)phenyl)-1-methylethyl]-2-hydroxy-2-(2-fluoro-3-chlorophenyl)ethanamine dihydrochloride], the “Reduction in area … (%)” value in assay [1] (1 μ moles/kg po) is 64%. Also, the response vs control in vivo at 25.3 mg/kg worked out at 148% in assay [2] (setting [6]) and 79% in assay [2] (read-out: Mean Food Intake (%)). For the same compound, the Emax at 0.01 mg in assay [3] (setting [11]) turned out to be 45%; in assay [3] (setting [12]), 60%.
As to `CNCCOc1ccc(CC(C)NCC(O)c2cccc(C(F)(F)F)c2)cc1` (stereo not shown) [Example 1a, N-[2-(4-(2-Methylaminoethoxy)phenyl)-1-methylethyll-2-hydroxy-2-(3-trifluoromethylphenyl)ethanaminedihydrochloride], the response vs control in vivo at 2.61 mg/kg in assay [2] (setting [6]) was determined as 120%; in assay [2] (read-out: Mean Food Intake (%)), 94%. Besides, the “g Lipid/Mouse Treated” value in assay [4] (13.1 mg/kg p.o. daily for 28 days, Control 19.13) was 12.54 g Lipid/Mouse.
On to `CNCCOc1ccc(CC(C)NCC(O)c2cccc(Cl)c2)cc1.Cl.Cl` (stereo not shown) [Example 22, N-[2-(4-(2-Methylaminoethoxy)phenyl)-1-methylethyl]-2-hydroxy-2-(3-chlorophenyl)ethanamine dihydrochloride], for which, in assay [1] (1 μ moles/kg po), the “Reduction in area … (%)” value turned out to be 43%. Further, the figures for the response vs control in vivo at 24.3 mg/kg in assay [2] (setting [6]) and in assay [2] (read-out: Mean Food Intake (%)) were 124% and 84%, respectively. In addition, the Emax at 0.03 mg in assay [3] (setting [11]) was found to be 57%; in assay [3] (setting [12]), 22%.
With `CNCCOc1ccc(CC(C)NCC(O)c2cccc(F)c2)cc1` (stereo not shown) [Example 9, N-[2-(4-(2-Methylaminoethoxy)phenyl-1-methylethyl]-2-hydroxy-2-(3-fluorophenyl)ethanaminedihydrobromide], in assay [1] (1 μ moles/kg po), the “Reduction in area … (%)” value came to 39%. The response vs control in vivo at 28.3 mg/kg stood at 129% in assay [2] (setting [6]) and 109% in assay [2] (read-out: Mean Food Intake (%)). The Emax at 0.01 mg was 73% in assay [3] (setting [7]) and 53% in assay [3] (setting [8]).
With `CC(=O)NCCOc1ccc(CC(C)NCC(O)c2cccc(C(F)(F)F)c2)cc1` (stereo not shown) [Example 21, N-[2-(4-(2-Acetylaminoethoxy)phenyl)-1-methylethyl]-2-hydroxy-2-(3-trifluoromethylphenyl)ethanamine], the “Reduction in area … (%)” value in assay [1] (2.5 μ moles/kg po) was 44%. In addition, the response vs control in vivo at 23.6 mg/kg in assay [2] (setting [6]) worked out at 119%; in assay [2] (read-out: Mean Food Intake (%)), 102%. Also, the Emax at 0.03 mg was 22% in assay [3] (setting [9]) and 24% in assay [3] (setting [10]).
For `CC(Cc1ccc(OCCN(C)C)cc1)NCC(O)c1cccc(C(F)(F)F)c1.Cl.Cl` (stereo not shown) [Example 2, N-[2-(4-(2-Dimethylaminoethoxy)phenyl)-1-methylethyl]-2-hydroxy-2-(3-trifluoromethylphenyl)ethanamine dihydrochloride], in assay [1] (5 μ moles/kg po), the “Reduction in area … (%)” value was found to be 49%. In addition, the response vs control in vivo at 26.9 mg/kg turned out to be 127% in assay [2] (setting [6]) and 98% in assay [2] (read-out: Mean Food Intake (%)). The Emax at 0.01 mg in assay [3] (setting [11]) and in assay [3] (setting [12]) was 0% throughout.
Turning to `Br.Br.CNCCOc1ccc(CC(C)NCC(O)c2ccccc2F)cc1` (stereo not shown) [Example 7, N-[2-(4-(2-Methylaminoethoxy)phenyl)-1-methylethyl]-2-hydroxy-2-(2-fluorophenyl)ethanamine dihydrobromide], the “Reduction in area … (%)” value in assay [1] (1 μ moles/kg po) came to 33%. The response vs control in vivo at 28.3 mg/kg in assay [2] (setting [6]) was 125%; in assay [2] (read-out: Mean Food Intake (%)), 109%. Also, the Emax at 0.01 mg was found to be 73% in assay [3] (setting [11]) and 18% in assay [3] (setting [12]).
Consider `CC(C)(C)NCC(O)c1ccc(O)c(CO)c1` (stereo not shown) [Salbutamol, reference compound], for which the Emax stood at 100% in assay [3] (perfused rat heart, read-out: Heart Rate) and 100% in assay [3] (perfused rat heart, read-out: Heart Tension).
As for `CC(Cc1ccc(OCCNS(C)(=O)=O)cc1)NCC(O)c1cccc(C(F)(F)F)c1` (stereo not shown) [Example 3, N-[2-(4-(2-Methylsulphonylaminoethoxy)phenyl)-1-methylethyl]-2-hydroxy-2-(3-trifluoromethylphenyl)ethanamine], the “Reduction in area … (%)” value in assay [1] (1 μ moles/kg po) is on record as 56%. For the same compound, the response vs control in vivo at 25.6 mg/kg in assay [2] (setting [6]) amounted to 125%; in assay [2] (read-out: Mean Food Intake (%)), 83%. For the same compound, the Emax at 0.01 mg in assay [3] (setting [7]) is 38%; in assay [3] (setting [8]), 4%.
Take `CC(Cc1ccc(OCCNCc2ccccc2)cc1)NCC(O)c1cccc(C(F)(F)F)c1` (stereo not shown) [Example 18, N-[2-(4-(2-Benzylaminoethoxy)phenyl)-1-methylethyl]-2-hydroxy-2-(3-trifluoromethylphenyl)ethanamine]: the “Reduction in area … (%)” value in assay [1] (2.5 μ moles/kg po) was determined as 50%. The response vs control in vivo at 26.3 mg/kg in assay [2] (setting [6]) was 131%; in assay [2] (read-out: Mean Food Intake (%)), 80%. For the same compound, the Emax at 0.03 mg in assay [3] (setting [9]) was 12%; in assay [3] (setting [10]) it was 7%.
In the case of `CC(Cc1ccc(OCCN2CCCCC2)cc1)NCC(O)c1cccc(Cl)c1` (stereo not shown) [Example 14, N-[2-(4-(2-(1-Piperidine)ethoxy)phenyl)-1-methylethyl]-2-hydroxy-2-(3-chlorophenyl)ethanamine dihydrochloride], the “Reduction in area … (%)” value in assay [1] (1 μ moles/kg po) was determined as 68%. The response vs control in vivo at 23.9 mg/kg in assay [2] (setting [6]) came to 141%; in assay [2] (read-out: Mean Food Intake (%)), 111%. In assay [4] (3.61 mg/kg p.o. daily for 28 days, Control 22.90), the “g Lipid/Mouse Treated” value is 19.83 g Lipid/Mouse. Also, the Emax at 0.03 mg in assay [3] (setting [9]) and in assay [3] (setting [10]) was 0% throughout.
As for `Br.Br.CNCCOc1ccc(CC(C)NCC(O)c2cccc(Br)c2)cc1` (stereo not shown) [Example 8, N-[2-(4-(2-Methylaminoethoxy)phenyl)-1-methylethyl]-2-hydroxy-2-(3-bromophenyl)ethanamine dihydrobromide], the “Reduction in area … (%)” value in assay [1] (1 μ moles/kg po) is listed as 51%. The response vs control in vivo at 31.6 mg/kg in assay [2] (setting [6]) was 135%; in assay [2] (read-out: Mean Food Intake (%)) it was 97%. Besides, the “g Lipid/Mouse Treated” value in assay [4] (15.8 mg/kg p.o. daily for 28 days, Control 19.89) was found to be 17.91 g Lipid/Mouse. Further, the Emax at 0.01 mg in assay [3] (setting [11]) was determined as 73%; in assay [3] (setting [12]), 20%. For the same compound, the Dose-Ratio in assay [5] came to 4.8.
Regarding `CNCCOc1ccc(CC(C)NCC(O)c2cccc(C(F)(F)F)c2)cc1` (stereo not shown) [Example 1, N-[2-(4-(2-Methylaminoethoxy)phenyl)-1-methylethyll-2-hydroxy-2-(3-trifluoromethylphenyl)ethanaminedihydrochloride], the “Reduction in area … (%)” value in assay [1] (1 μ moles/kg po) stood at 33%. Further, the figures for the response vs control in vivo at 26.1 mg/kg in assay [2] (setting [6]) and in assay [2] (read-out: Mean Food Intake (%)) were 129% and 98%, respectively. Moreover, the Emax at 0.01 mg was 0% in assay [3] (setting [7]) and 7% in assay [3] (setting [8]).
Consider `CNCCOc1ccc(C[C@H](C)NC[C@H](O)c2cccc(C(F)(F)F)c2)cc1` [Example 23, N-[2-(4-(2-Methylaminoethoxy)phenyl)-1-methylethyl]-2-hydroxy-2-(3-trifluoromethylphenyl)ethanamine dihydrochloride, (RS,SR) diastereoisomer], for which the “Reduction in area … (%)” value in assay [1] (2.5 μ moles/kg po) turned out to be 20%. Further, the response vs control in vivo at 6.5 mg/kg is 109% in assay [2] (setting [6]) and 112% in assay [2] (read-out: Mean Food Intake (%)).
